Laboratory results published in ChEMBL document CHEMBL1201862, “PubChem BioAssay data set” (2004).
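Five concentrations, 48 hours, 96-well plates. GI50 marks 50% less growth.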 The source made the active and inactive calls. No stated cut-off is given here; in the data, active = GI50 up to about 1.1 µM and inactive = higher.

Key:
Assay in all cases: inhibition of tumour cell growth, NCI panel, 48 h
786-0 = system: 786-0
A498 = system: A498
A549 = system: A549
ACHN = system: ACHN
BT-549 = system: BT-549
CAKI-1 = system: CAKI-1
CCRF-CEM = system: CCRF-CEM
DU-145 = system: DU-145
EKVX = system: EKVX
HCC 2998 = system: HCC 2998
HCT-116 = system: HCT-116
HCT-15 = system: HCT-15
HL-60 = system: HL-60
HOP-62 = system: HOP-62
HOP-92 = system: HOP-92
HT-29 = system: HT-29
Hs-578T = system: Hs-578T
IGROV-1 = system: IGROV-1
K562 = system: K562
KM12 = system: KM12
MCF7 = system: MCF7
MDA-MB-231 = system: MDA-MB-231
MDA-MB-435 = system: MDA-MB-435
MDA-N = system: MDA-N
MOLT-4 = system: MOLT-4
Malme-3M = system: Malme-3M
NCI-H226 = system: NCI-H226
NCI-H23 = system: NCI-H23
NCI-H460 = system: NCI-H460
NCI-H522 = system: NCI-H522
NCI/ADR-RES = system: NCI/ADR-RES
OVCAR-3 = system: OVCAR-3
OVCAR-4 = system: OVCAR-4
OVCAR-5 = system: OVCAR-5
OVCAR-8 = system: OVCAR-8
PC-3 = system: PC-3
RPMI-8226 = system: RPMI-8226
RXF 393 = system: RXF 393
SF-268 = system: SF-268
SF-539 = system: SF-539
SK-MEL-28 = system: SK-MEL-28
SK-MEL-2 = system: SK-MEL-2
SK-MEL-5 = system: SK-MEL-5
SK-OV-3 = system: SK-OV-3
SN12C = system: SN12C
SNB-19 = system: SNB-19
SNB-75 = system: SNB-75
SR = system: SR
SW-620 = system: SW-620
T47D = system: T47D
TK-10 = system: TK-10
U-251 = system: U-251
UACC-257 = system: UACC-257
UACC-62 = system: UACC-62
UO-31 = system: UO-31
COLO 205 = system: COLO 205
LOX IMVI = system: LOX IMVI
M14 = system: M14
SF-295 = system: SF-295

Measured: GI50

COC(=O)[C@@H]1C[C@]2(Br)c3ccccc3N(S(=O)(=O)c3ccccc3)[C@@H]2N1C(=O)OC
active: UACC-257 0.0285 µM
inactive: 786-0 > 100 µM | A498 59.2 µM | A549 > 100 µM | ACHN > 100 µM | BT-549 > 100 µM | CAKI-1 59.8 µM | CCRF-CEM > 100 µM | DU-145 43.7 µM | EKVX 74.1 µM | HCC 2998 84.3 µM | HCT-116 > 100 µM | HL-60 > 100 µM | HOP-62 > 100 µM | HOP-92 > 100 µM | HT-29 > 100 µM | Hs-578T 83.9 µM | IGROV-1 > 100 µM | K562 > 100 µM | KM12 > 100 µM | MCF7 > 100 µM | MDA-MB-231 > 100 µM | MDA-MB-435 > 100 µM | MDA-N > 100 µM | MOLT-4 > 100 µM | Malme-3M > 100 µM | NCI-H226 85.7 µM | NCI-H23 37.3 µM | NCI-H460 > 100 µM | NCI-H522 > 100 µM | NCI/ADR-RES > 100 µM | OVCAR-3 > 100 µM | OVCAR-4 73.8 µM | OVCAR-5 51.3 µM | OVCAR-8 > 100 µM | PC-3 > 100 µM | RPMI-8226 93.1 µM | RXF 393 23 µM | SF-268 > 100 µM | SF-539 > 100 µM | SK-MEL-28 > 100 µM | SK-MEL-2 74.5 µM | SK-MEL-5 > 100 µM | SK-OV-3 > 100 µM | SN12C > 100 µM | SNB-19 > 100 µM | SNB-75 66.8 µM | SR > 100 µM | SW-620 > 100 µM | T47D > 100 µM | TK-10 > 100 µM | U-251 > 100 µM | UACC-62 62.1 µM | UO-31 > 100 µM
67.3 µM: HCT-15

CCc1nc2cc3cccnc3c(Cl)c2[nH]c1=O
inactive: 786-0 79.8 µM | A498 > 100 µM | A549 > 100 µM | ACHN 78.7 µM | BT-549 65.9 µM | CAKI-1 75.7 µM | CCRF-CEM > 100 µM | COLO 205 > 100 µM | DU-145 > 100 µM | EKVX > 100 µM | HCC 2998 > 100 µM | HCT-116 > 100 µM | HL-60 > 100 µM | HOP-62 > 100 µM | HOP-92 49.2 µM | HT-29 > 100 µM | Hs-578T > 100 µM | IGROV-1 71 µM | K562 > 100 µM | KM12 > 100 µM | LOX IMVI > 100 µM | M14 > 100 µM | MCF7 5.86 µM | MDA-MB-231 > 100 µM | MDA-MB-435 > 100 µM | MDA-N > 100 µM | MOLT-4 > 100 µM | Malme-3M > 100 µM | NCI-H226 > 100 µM | NCI-H23 > 100 µM | NCI-H460 > 100 µM | NCI-H522 > 100 µM | NCI/ADR-RES 79.1 µM | OVCAR-3 > 100 µM | OVCAR-4 > 100 µM | OVCAR-5 > 100 µM | OVCAR-8 > 100 µM | PC-3 > 100 µM | RPMI-8226 > 100 µM | RXF 393 31.8 µM | SF-268 > 100 µM | SF-295 > 100 µM | SK-MEL-28 > 100 µM | SK-MEL-2 > 100 µM | SK-MEL-5 > 100 µM | SK-OV-3 95.9 µM | SN12C > 100 µM | SNB-19 58.3 µM | SNB-75 17.8 µM | SR > 100 µM | SW-620 > 100 µM | T47D 63.4 µM | TK-10 89.5 µM | U-251 61.5 µM | UACC-257 > 100 µM | UACC-62 > 100 µM | UO-31 > 100 µM
> 100 µM: HCT-15

CN(C)c1ccc(/C=C(\C#N)C(N)=C(C#N)C#N)cc1
> 100 µM: HCT-15
inactive: 786-0 > 100 µM | A498 > 100 µM | A549 > 100 µM | ACHN > 100 µM | BT-549 > 100 µM | CAKI-1 > 100 µM | CCRF-CEM > 100 µM | COLO 205 > 100 µM | DU-145 > 100 µM | EKVX > 100 µM | HCC 2998 > 100 µM | HCT-116 > 100 µM | HL-60 > 100 µM | HOP-62 > 100 µM | HOP-92 > 100 µM | HT-29 > 100 µM | Hs-578T > 100 µM | IGROV-1 > 100 µM | K562 > 100 µM | KM12 > 100 µM | LOX IMVI > 100 µM | M14 30 µM | MCF7 > 100 µM | MDA-MB-231 > 100 µM | MDA-MB-435 > 100 µM | MDA-N > 100 µM | Malme-3M 32 µM | NCI-H226 > 100 µM | NCI-H23 > 100 µM | NCI-H460 > 100 µM | NCI-H522 > 100 µM | NCI/ADR-RES > 100 µM | OVCAR-3 > 100 µM | OVCAR-4 > 100 µM | OVCAR-5 > 100 µM | OVCAR-8 > 100 µM | PC-3 > 100 µM | RXF 393 > 100 µM | SF-268 > 100 µM | SF-295 > 100 µM | SF-539 > 100 µM | SK-MEL-28 80 µM | SK-MEL-5 > 100 µM | SK-OV-3 > 100 µM | SN12C > 100 µM | SNB-19 > 100 µM | SR > 100 µM | SW-620 > 100 µM | T47D > 100 µM | TK-10 > 100 µM | U-251 > 100 µM | UACC-257 97.9 µM | UACC-62 94 µM | UO-31 > 100 µM

COc1ccc(Nc2nc(N)c(C(=O)c3cccs3)s2)cc1
3.11 µM: HCT-15
inactive: 786-0 8.49 µM | A498 6.68 µM | A549 5.7 µM | ACHN 12.2 µM | BT-549 23.3 µM | CAKI-1 5 µM | CCRF-CEM 3.38 µM | COLO 205 3.98 µM | DU-145 5.56 µM | EKVX 16.9 µM | HCT-116 3.22 µM | HL-60 3.56 µM | HOP-62 16.9 µM | HOP-92 21.1 µM | HT-29 3.35 µM | Hs-578T 11.5 µM | IGROV-1 4.43 µM | K562 3.64 µM | KM12 2.99 µM | LOX IMVI 6.67 µM | M14 13.4 µM | MCF7 5.21 µM | MDA-MB-231 26.2 µM | MDA-MB-435 1.24 µM | MDA-N 3.92 µM | MOLT-4 2.51 µM | Malme-3M 30.1 µM | NCI-H226 5.86 µM | NCI-H23 12.8 µM | NCI-H460 3.1 µM | NCI-H522 5.09 µM | NCI/ADR-RES 10.7 µM | OVCAR-3 3.47 µM | OVCAR-4 9.73 µM | OVCAR-5 15.8 µM | OVCAR-8 19.2 µM | PC-3 11.4 µM | RPMI-8226 5.92 µM | RXF 393 5.55 µM | SF-268 17 µM | SF-295 10.9 µM | SF-539 4.21 µM | SK-MEL-28 31 µM | SK-MEL-2 10.9 µM | SK-MEL-5 2.8 µM | SK-OV-3 20.6 µM | SN12C 27.5 µM | SNB-19 11 µM | SW-620 5.45 µM | T47D 15.8 µM | TK-10 5.08 µM | U-251 7.5 µM | UACC-257 9.31 µM | UACC-62 11.3 µM | UO-31 6.1 µM
active: HCC 2998 0.931 µM | SR 0.682 µM

Oc1cc(Cl)cc2cccnc12
0.552 µM: HCT-15
inactive: 786-0 8.71 µM | A498 11.5 µM | ACHN 1.38 µM | BT-549 3.89 µM | CAKI-1 5 µM | COLO 205 6.65 µM | DU-145 9.71 µM | HCC 2998 24.5 µM | HCT-116 1.43 µM | HOP-62 > 35 µM | HOP-92 3.25 µM | HT-29 9.31 µM | Hs-578T 4.05 µM | KM12 4.78 µM | M14 10.5 µM | MDA-MB-231 2.19 µM | MDA-MB-435 3.52 µM | MDA-N 17.9 µM | Malme-3M 3.02 µM | NCI-H226 6.79 µM | NCI-H23 1.29 µM | NCI-H460 1.44 µM | OVCAR-5 4.85 µM | PC-3 1.26 µM | RXF 393 3.02 µM | SK-MEL-28 19.3 µM | SK-MEL-2 5.92 µM | SK-OV-3 43.7 µM | SN12C 1.7 µM | SNB-19 5.94 µM | SNB-75 17.2 µM | SW-620 1.65 µM | T47D 2.25 µM | TK-10 57.5 µM | UACC-257 1.38 µM
active: A549 0.998 µM | CCRF-CEM 0.288 µM | EKVX 0.804 µM | HL-60 0.229 µM | IGROV-1 0.986 µM | K562 0.396 µM | LOX IMVI 0.625 µM | MCF7 1.04 µM | MOLT-4 0.465 µM | NCI-H522 0.348 µM | NCI/ADR-RES 0.354 µM | OVCAR-3 0.306 µM | OVCAR-4 0.411 µM | OVCAR-8 0.528 µM | RPMI-8226 0.601 µM | SF-268 0.296 µM | SF-295 0.288 µM | SK-MEL-5 0.902 µM | SR 0.449 µM | U-251 0.971 µM | UACC-62 1.01 µM | UO-31 0.847 µM
